Reference: ChEMBL document CHEMBL1132104, “Synthesis and SAR of thioester and thiol inhibitors of IMP-1 metallo-beta-lactamase” (Bioorg Med Chem Lett, 1999)

Assay: Inhibitory activity against IMP-1 metallo-beta-lactamase (MBL)

Point of comparison: `CC(=O)S[C@H](Cc1ccc(-c2ccccc2)cc1)C(=O)O`, IC50 0.084 µM. Against it:
- C[C@@H](NC(=O)Cc1ccc(N(C)C)cc1)C(=O)S[C@H](Cc1ccc(-c2ccccc2)cc1)C(=O)O — 650-fold higher, 55 µM
- CC(=O)N[C@H](C)C(=O)S[C@H](Cc1ccccc1)C(=O)O — 750-fold higher, 63 µM
- C[C@@H](NC(=O)Cc1cccnc1)C(=O)S[C@H](Cc1ccc(-c2ccccc2)cc1)C(=O)O — 380-fold higher, 32 µM
- CC(=O)S[C@@H](Cc1ccc(-c2ccccc2)cc1)C(=O)O — 880-fold higher, 74 µM
- C[C@@H](NC(=O)Cc1ccccc1OCc1ccccc1)C(=O)S[C@H](Cc1ccc(-c2ccccc2)cc1)C(=O)O — 290-fold higher, 24 µM
- O=C(O)[C@H](S)Cc1ccc(-c2ccccc2)cc1 — within 1.5-fold, 0.057 µM
- C[C@@H](NC(=O)c1ccccc1)C(=O)S[C@H](Cc1ccc2oc3ccccc3c2c1)C(=O)O — 18-fold higher, 1.5 µM
- O=C(O)[C@@H](S)Cc1ccccc1 — 44-fold higher, 3.7 µM
- C[C@@H](NC(=O)c1ccccc1)C(=O)S[C@H](Cc1ccccc1)C(=O)O — 240-fold higher, 20 µM
- C[C@@H](NC(=O)COc1ccccc1)C(=O)S[C@H](Cc1ccc(-c2ccccc2)cc1)C(=O)O — 12-fold higher, 1 µM
- C[C@@H](NC(=O)Cc1ccccc1)C(=O)S[C@H](Cc1ccc(-c2ccccc2)cc1)C(=O)O — 69-fold higher, 5.8 µM
- CC(C)C(=O)N[C@H](C)C(=O)S[C@H](Cc1ccc(-c2ccccc2)cc1)C(=O)O — 120-fold higher, 9.7 µM
- CC(=O)N[C@H](C)C(=O)S[C@H](Cc1ccc(-c2ccccc2)cc1)C(=O)O — 210-fold higher, 18 µM
- COc1ccc(CC(=O)N[C@H](C)C(=O)S[C@H](Cc2ccc(-c3ccccc3)cc2)C(=O)O)cc1 — 140-fold higher, 12 µM
- O=C(S[C@H](Cc1ccc2oc3ccccc3c2c1)C(=O)O)c1ccccc1 — 65-fold lower, 0.0013 µM
- C[C@@H](NC(=O)CCC(=O)O)C(=O)S[C@H](Cc1ccc(-c2ccccc2)cc1)C(=O)O — 56-fold higher, 4.7 µM
- CCC(=O)N[C@H](C)C(=O)S[C@H](Cc1ccc(-c2ccccc2)cc1)C(=O)O — 110-fold higher, 9.5 µM
- COc1cccc(C(=O)N[C@H](C)C(=O)S[C@H](Cc2ccc(-c3ccccc3)cc2)C(=O)O)c1 — 450-fold higher, 38 µM
- COc1ccc(C(=O)N[C@H](C)C(=O)S[C@H](Cc2ccc(-c3ccccc3)cc2)C(=O)O)cc1 — 350-fold higher, 29 µM
- CC(=O)S[C@@H](Cc1ccccc1)C(=O)O — 8800-fold higher, 740 µM
- O=C(S[C@@H](Cc1ccc(-c2ccccc2)cc1)C(=O)O)c1ccccc1 — 1400-fold higher, 120 µM
- CC(=O)S[C@H](Cc1ccc2oc3ccccc3c2c1)C(=O)O — 1.9-fold lower, 0.045 µM
- C=CCOC(=O)N[C@H](C)C(=O)S[C@H](Cc1ccc2oc3ccccc3c2c1)C(=O)O — 35-fold higher, 2.9 µM
- O=C(O)[C@@H](S)Cc1ccc(-c2ccccc2)cc1 — 14-fold higher, 1.2 µM
- C[C@@H](NC(=O)CSCC(=O)O)C(=O)S[C@H](Cc1ccc(-c2ccccc2)cc1)C(=O)O — 150-fold higher, 13 µM
- CCCCC(=O)N[C@H](C)C(=O)S[C@H](Cc1ccc(-c2ccccc2)cc1)C(=O)O — 57-fold higher, 4.8 µM
- C[C@@H](NC(=O)c1ccccc1)C(=O)S[C@@H](Cc1ccc2oc3ccccc3c2c1)C(=O)O — 5100-fold higher, 430 µM
- CC(C)CC(=O)N[C@H](C)C(=O)S[C@H](Cc1ccc(-c2ccccc2)cc1)C(=O)O — 63-fold higher, 5.3 µM
- O=C(O)[C@@H](S)Cc1ccc2oc3ccccc3c2c1 — 3-fold higher, 0.25 µM
- CC(=O)N[C@H](C)C(=O)S[C@H](Cc1ccc2oc3ccccc3c2c1)C(=O)O — 24-fold higher, 2 µM
- O=C(S[C@H](Cc1ccccc1)C(=O)O)c1ccccc1 — within 1.5-fold, 0.064 µM
- C[C@@H](NC(=O)/C=C/c1ccccc1)C(=O)S[C@H](Cc1ccc(-c2ccccc2)cc1)C(=O)O — 130-fold higher, 11 µM
- C=CCOC(=O)N[C@H](C)C(=O)S[C@H](Cc1ccccc1)C(=O)O — 760-fold higher, 64 µM
- C[C@@H](NC(=O)c1ccccc1)C(=O)SCC(=O)O — 2900-fold higher, 240 µM
- COc1cc(OC)c(C(=O)N[C@H](C)C(=O)S[C@H](Cc2ccc(-c3ccccc3)cc2)C(=O)O)c(OC)c1 — 550-fold higher, 46 µM
- O=C(S[C@@H](Cc1ccc2oc3ccccc3c2c1)C(=O)O)c1ccccc1 — 580-fold higher, 49 µM
- CCCC(=O)N[C@H](C)C(=O)S[C@H](Cc1ccc(-c2ccccc2)cc1)C(=O)O — 110-fold higher, 9.3 µM
- C[C@@H](NC(=O)CCCC(=O)O)C(=O)S[C@H](Cc1ccc(-c2ccccc2)cc1)C(=O)O — 1100-fold higher, 91 µM
- C[C@@H](NC(=O)CNC(=O)c1ccccc1)C(=O)S[C@H](Cc1ccc(-c2ccccc2)cc1)C(=O)O — 600-fold higher, 50 µM
- C[C@@H](NC(=O)c1cccc(N(C)C)c1)C(=O)S[C@H](Cc1ccc(-c2ccccc2)cc1)C(=O)O — 180-fold higher, 15 µM
- CCCCCC(=O)N[C@H](C)C(=O)S[C@H](Cc1ccc(-c2ccccc2)cc1)C(=O)O — 150-fold higher, 13 µM
- C[C@@H](NC(=O)CCc1ccccc1)C(=O)S[C@H](Cc1ccc(-c2ccccc2)cc1)C(=O)O — 180-fold higher, 15 µM
- C[C@@H](NC(=O)Cc1cccc2ccccc12)C(=O)S[C@H](Cc1ccc(-c2ccccc2)cc1)C(=O)O — 140-fold higher, 12 µM
- O=C(S[C@@H](Cc1ccccc1)C(=O)O)c1ccccc1 — 30-fold higher, 2.5 µM
- O=C(O)[C@H](S)Cc1ccc2oc3ccccc3c2c1 — 3.7-fold lower, 0.023 µM
- C/C=C/C(=O)N[C@H](C)C(=O)S[C@H](Cc1ccc(-c2ccccc2)cc1)C(=O)O — 390-fold higher, 33 µM
- C[C@@H](NC(=O)c1ccccc1)C(=O)S[C@H](Cc1ccc(-c2ccccc2)cc1)C(=O)O — 43-fold higher, 3.6 µM
- O=C(S[C@H](Cc1ccc(-c2ccccc2)cc1)C(=O)O)c1ccccc1 — 200-fold lower, 0.00041 µM
- C[C@@H](NC(=O)c1ccc2ccccc2c1)C(=O)S[C@H](Cc1ccc(-c2ccccc2)cc1)C(=O)O — 210-fold higher, 18 µM
- C=CCOC(=O)N[C@H](C)C(=O)S[C@H](Cc1ccc(-c2ccccc2)cc1)C(=O)O — 52-fold higher, 4.4 µM
- O=C(O)[C@H](S)Cc1ccccc1 — within 1.5-fold, 0.086 µM
- C[C@@H](NC(=O)CCC(=O)c1ccccc1)C(=O)S[C@H](Cc1ccc(-c2ccccc2)cc1)C(=O)O — 3-fold higher, 0.25 µM
- CC(=O)S[C@H](Cc1ccccc1)C(=O)O — 140-fold higher, 12 µM
- C[C@@H](NC(=O)Cc1ccc(O)cc1)C(=O)S[C@H](Cc1ccc(-c2ccccc2)cc1)C(=O)O — 37-fold higher, 3.1 µM
- CC(=O)S[C@@H](Cc1ccc2oc3ccccc3c2c1)C(=O)O — 1900-fold higher, 160 µM
